{"source": "patent US10144929B2", "about": "“Polypeptide inhibitors of Smad3 polypeptide activities” (Mayo Foundation for Medical Education and Research, priority 2016, dated 2018)", "tested_on": "AKR-2B cells", "assay": "Soft agar colony formation (anchorage-independent growth, AIG)", "format": "cell-based", "conditions": "1.5 μM polypeptide, TGFβ 10 ng/mL, seven days", "procedure": "FIGS. 2A-C. TAT-SH3 inhibits Smad3-dependent responses. (A) AKR-2B cells were transiently transfected with a Smad3 (3TP), Smad2 (ARE), or Smad1/5/8 (BRE) reporter construct, and luciferase activity determined following 12 hours incubation in the absence (−) or presence (+) of the indicated ligand (5 ng/mL TGFβ; 10 ng/mL BMP4) or TAT-SNX9(SH3) fusion polypeptide (1.5 μM). Data represent the mean+/−SEM of three experiments. (B) RT-PCR analysis of Smad3 (PAI-1 and CTGF) and Smad2 (MMP2) responsive gene following 24 hour treatment of AKR-2B cells with the indicated concentration of TAT-SNX9(SH3) fusion polypeptide or 5 ng/mL TGFβ. Loading was verified by GAPDH expression. (C) Soft agar colony formation was performed following seven days growth in the presence (+) or absence (−) of TGFβ (10 ng/mL) or the indicated TAT-SNX9(SH3) fusion polypeptide (1.5 μM). […]\nFIGS. 3A-E. Inhibition of Smad3 signaling by a defined region of the SH3 domain in SNX9. […] (B) Nuclear fractions were prepared and assessed as in FIG. 1B following transduction with the indicated TAT-SNX9(SH3) fusion polypeptide (Left). Quantitation (mean+/−sd) of nuclear pSmad2 or pSmad3 from 2 experiments (Right). (C) Immunofluorescence of nuclear Smad3 was determined as in FIG. 1C from 30 cells in each of two experiments in the absence (−) or presence (+) of 5 ng/mL TGFβ and the indicated TAT-SNX9(SH3) fusion polypeptide (1.5 μM). […]"}
{"substance": "TAT-SH3-2: TAT-SNX9(SH3) fusion polypeptide having SNX9 amino acids 21-51 (31 mer) (TVNEGEIITITNPDVGGGWLEGRNIKGERGL; left off: small tags and cut ends)", "values": [{"measurement": "TGFβ-stimulated anchorage-independent growth in soft agar (AIG)", "value": "prevented"}]}
